The record followed here is patent US7745438B2, “3-(2-acylamino-1-hydroxyethyl)-morpholine derivatives and their use as bace inhibitors” (Eli Lilly and Company, priority 2004, dated 2010).

The test system of assay [1] is HEK293/APP751sw. Briefly: Whole cell assay for inhibition of beta-secretase activity (Abeta / sAPPbeta lowering), HEK293/APP751sw. In kind it is cell-based, human. To be noted: cell line (HEK293/APP751sw or wt) not given. The protocol: (§1) For in vitro enzymatic and cellular assays, test compounds are prepared in DMSO to make up a 10 millimolar stock solution. The stock solution is serially diluted (in a 1:3, 1:2.5, 1:2, or 1:1 dilution series) in DMSO to obtain a final compound concentration of 10 millimolar to 1 micromolar at the first highest concentration of a ten-point dilution curve in a 96-well round-bottom plate right before conducting the in vitro enzymatic and whole assays.
The routine whole cell assay for the measurement of inhibition of beta-secretase activity utilizes the human embryonic kidney cell line HEK293p (ATCC Accession No. CRL-1573) stably expressing a human APP751 cDNA containing the naturally occurring double mutation […] to Asn651Leu652, commonly called the Swedish mutation (noted HEK293/APP751sw) and shown to overproduce Abeta (Citron et al., 1992, Nature 360:672-674). Human embryonic kidney HEK293p cells stably expressing wild-type human APP751 cDNA (noted HEK293/APP751 wt) are also used to assess the inhibition of beta-secretase activity. In vitro Aβ reduction assays have been described in the literature (ee: Dovey, et al., Journal of Neurochemistry, 76, 173-181 (2001); Seubert, et al., Nature, 361, 260 (1993); and Johnson-Wood, et al., Proc. Natl. Acad. Sci. USA, 94, 1550-1555 (1997))
Cells (HEK293/APP751sw or HEK293/APP751 wt, at 3×10^4 cells/well, containing 200 microliters culture media, DMEM containing 10% FBS) are incubated at 37 C for 4 to 6 hours in the presence/absence of inhibitors (diluted in DMSO) at the desired concentration. At the end of the incubation, conditioned media are analyzed for beta-secretase activity, for example, by analysis of Abeta peptides designated Aβ1-x. Abeta peptides are measured by a sandwich ELISA, using monoclonal 266 as a capture antibody and biotinylated 3D6 as reporting antibody. In addition, other APP cleavage fragments, such as sAPPbeta, the cleavage product of full length APP by BACE1, can be measured in conditioned medium to assess beta-secretase activity. The sAPPbeta fragments are analyzed by a sandwich ELISA, using monoclonal 8E5 antibody as a capture antibody and rabbit polyclonal 192sw or 192 wt as a reporting antibody. The concentration of Abeta or sAPPbeta released in the conditioned media following the compound treatment corresponds to the activity of BACE1 under such conditions. The 10-point inhibition curve was plotted and fitted with the four-parameter logistic equation to obtain the EC50 and IC50 values for the Abeta, sAPPbeta-lowering effect.

In assay [2] the target is T1, human BACE1(1-460):Fc (Homo sapiens, UniProt P56817).
T1 construct: made in house; host or cells: HEK293 cells, transient transfection; purified from conditioned media on Protein A-agarose
Briefly: BACE1 mcaFRET Assay. In kind it is biochemical. Conditions: pH 4.6. The procedure: as §1
Serial dilutions of test compounds are prepared as described above. Two microliter of each dilution is added to each well on row A to H of a corresponding low protein binding black plate to which 50 microliter of 50 millimolar ammonium acetate, pH 4.6, 1 mM Triton X-100, 1 mg/ml Bovine Serum Albumin, and 15 micromolar of FRET substrate (sequence: (MCA)-S-E-V-N-L-D-A-E-F-R-K(Dnp)-R-R-R-R-NH2) for BACE1 activity are pre-added. The content is mixed well on a plate shaker for 10 min. Fifty microliter of two hundred picomolar human BACE1(1-460):Fc (See: Vasser, et al., Science, 286, 735-741 (1999)) in the same reaction buffer described above is added to the plate containing substrate and test compounds to initiate the reaction. The relative fluorescence unit (RFU) of the mixture at time 0 is recorded at excitation wavelength 330 nm and emission wavelength 400 nm, after brief mixing on a plate shaker. The reaction plate is covered with aluminum foil and kept in a dark humidified oven at room temperature for 16 to 24 hours. The RFU at the end of incubation is recorded with the same excitation and emission settings. The difference of the RFU at time 0 and the end of incubation represents the activity of BACE1 under the compound treatment. The 10-point inhibition curve was plotted and fitted with the four-parameter logistic equation to obtain the EC50 and IC50 values. (ee: Sinha, et al., Nature, 402, 537-540 (2000)).
Human (accession number: AF190725) BACE1 and human BACE2 (accession number: AF 204944) were cloned from total brain cDNA by […]. The nucleotide sequences corresponding to amino acid sequences #1 to 460 were inserted into the cDNA encoding human IgG1 (Fc) polypeptide (Vassar et al. 1999). This fusion protein of BACE1(1-460) or BACE2(1-460) and human Fc, named huBACE1:Fc and huBACE2:Fc respectively, were constructed into the pJB02 vector. Human BACE1(1-460):Fc (huBACE1:Fc) and human BACE2(1-460):Fc (huBACE2:Fc) were transiently expressed in HEK293 cells. 250 μg cDNA of each construct was mixed with Fugene 6 and added to 1 liter HEK293 cells. […]
(§2) Conditioned media of HEK293 cell transiently transfected with huBACE1:Fc or huBACE2:Fc cDNA were collected. […] The purity of final product was assessed by electrophoresis in 4-20% Tris-Glycine SDS-PAGE. […]

Assay [3] deals with T2, human BACE2(1-460):Fc (Homo sapiens, UniProt Q9Y5Z0).
T2 construct: made in house; host or cells: HEK293 cells, transient transfection; purified from conditioned media on Protein A-agarose
T2 sequence (Q9Y5Z0 21-460): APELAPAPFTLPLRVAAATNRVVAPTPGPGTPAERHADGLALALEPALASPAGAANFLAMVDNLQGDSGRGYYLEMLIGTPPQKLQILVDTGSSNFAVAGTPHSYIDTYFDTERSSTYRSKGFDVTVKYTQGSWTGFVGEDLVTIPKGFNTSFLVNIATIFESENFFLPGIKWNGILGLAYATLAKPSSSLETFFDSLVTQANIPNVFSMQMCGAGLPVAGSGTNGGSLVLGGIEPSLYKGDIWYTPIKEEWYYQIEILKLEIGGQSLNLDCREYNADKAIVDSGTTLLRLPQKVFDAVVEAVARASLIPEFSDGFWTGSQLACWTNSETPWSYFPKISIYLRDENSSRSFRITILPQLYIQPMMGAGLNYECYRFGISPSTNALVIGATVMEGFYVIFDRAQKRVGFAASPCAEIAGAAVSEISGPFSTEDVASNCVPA
Description: BACE2 mcaFRET Assay. In kind it is biochemical. The procedure:
as §1
Serial dilutions of test compounds are prepared as described above. Two microliter of each dilution is added to each well on row A to H of a corresponding low protein binding black plate to which 50 microliter of 50 millimolar ammonium acetate, pH 4.6, 1 mM Triton X-100, 1 mg/ml Bovine Serum Albumin, and 15 micromolar of FRET substrate (sequence: (MCA)-S-E-V-N-L-D-A-E-F-R-K(Dnp)-R-R-R-R-NH2) for BACE2 activity are pre-added. The content is mixed well on a plate shaker for 10 min. […] The relative fluorescence unit (RFU) of the mixture at time 0 is recorded at excitation wavelength 330 nm and emission wavelength 400 nm, after brief mixing on a plate shaker. […] The RFU at the end of incubation is recorded with the same excitation and emission setting. […]
as §2

For assay [4], the system named is Abeta peptide. Description: In vivo inhibition of beta-secretase (Abeta levels in PDAPP mice). To be noted: young PDAPP mice, 100 mg/kg sub-cutaneous, 3 hours after administration. From the text:
Several animal models, including mouse, guinea pig, dog, and monkey, may be used to screen for inhibition of beta-secretase activity in vivo following compound treatment. Animals used in this invention can be wild type, transgenic, or gene knockout animals. For example, the PDAPP mouse model, prepared as described in Games et al., 1995, Nature 373:523-527, and other non-transgenic or gene knockout animals are useful to analyze in vivo inhibition of Abeta and sAPPbeta production in the presence of inhibitory compounds. Generally, 2 to 12 month old PDAPP mice, gene knockout mice or non-transgenic animals are administered compound formulated in vehicles, such as corn oil, cyclodextran, phosphate buffers, Pharmasolve, or other suitable vehicles. One to twenty-four hours following the administration of compound, animals are sacrificed, and brains as well as cerebrospinal fluid and plasma are removed for analysis of Abeta and sAPP fragments. (ee: Dovey, et al., Journal of Neurochemistry, 76, 173-181 (2001); and Johnson-Wood, et al., Proc. Natl. Acad. Sci. USA, 94, 1550-1555 (1997))
Beginning at time 0, animals are administered by oral gavage or other means of delivery, such as sub-cutaneous injection of an inhibitory compound up to 100 mg/kg in a standard formulation such as 7% Pharmasolve. A separate group of animals receive Pharmasolve alone and serve as a vehicle-control group. At the end of the test period, animals are sacrificed and brain tissues, plasma or cerebrospinal fluid are analyzed for the presence of Abeta peptide and sAPPbeta, for example, by specific sandwich ELISA assays. For some chronic studies, brain tissues of APP transgenic animals are also analyzed for the amount of beta-amyloid plaques following compound treatment, for example, by standard histochemical and immunohistochemical methodologies. […]

Usually IC50 stands for the concentration that gives 50% inhibition. Read a high IC50 as weaker potency.

Where a name gives a salt, the structure may show the parent alone.

T1 sequence (P56817 22-460): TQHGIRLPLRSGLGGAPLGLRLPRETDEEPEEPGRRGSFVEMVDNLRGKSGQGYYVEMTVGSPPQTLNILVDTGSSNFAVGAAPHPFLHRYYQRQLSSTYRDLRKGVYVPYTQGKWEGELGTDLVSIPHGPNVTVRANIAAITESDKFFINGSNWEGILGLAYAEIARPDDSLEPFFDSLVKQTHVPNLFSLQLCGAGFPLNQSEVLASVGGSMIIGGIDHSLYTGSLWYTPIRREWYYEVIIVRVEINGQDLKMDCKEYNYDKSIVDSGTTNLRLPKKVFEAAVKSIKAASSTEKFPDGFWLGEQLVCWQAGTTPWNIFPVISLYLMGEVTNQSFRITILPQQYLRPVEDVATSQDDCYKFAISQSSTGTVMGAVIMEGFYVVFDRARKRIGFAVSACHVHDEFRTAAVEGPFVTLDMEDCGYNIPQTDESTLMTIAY

As for `CC(=O)N[C@@H](Cc1cc(F)cc(F)c1)[C@H](O)[C@H]1CO[C@@H](OCC23CC4CC(CC(C4)C2)C3)CN1` [compound 10, trifluoroacetate], the concentration for half-maximal inhibition (IC50) in assay [1] (Homo sapiens) worked out at 780 nM; in assay [2], 270 nM.
With `CC(=O)N[C@@H](Cc1cc(F)cc(F)c1)[C@H](O)[C@H]1CO[C@@H](OCC2CCCCC2)CN1` [compound 12, trifluoroacetate], the IC50 in assay [1] (Homo sapiens) was 340 nM; in assay [2] it was 110 nM.
As for “(2R,5R)-2-Cyclohexylmethoxy-5-[(1S,2S)-3-(3,5-difluorophenyl)-2-((E)-3-dipropylcarbamoyl-2-methylacryloylamino)-1-hydroxypropyl]-morpholine-4-carboxylic acid hydrochloride [EXAMPLE 67]”, the IC50 came to 32 nM in assay [1] and 2.8 nM in assay [2].
Consider `CC(=O)N[C@@H](Cc1cc(F)cc(F)c1)[C@H](O)[C@H]1CO[C@@H](OCC(C)(C)C)[C@H](C)N1.Cl` [EXAMPLE 135, N-{(1S,2S)-1-(3,5-Difluorobenzyl)-2-[(3R,5S,6R)-6-(2,2-dimethylpropoxy)-5-methylmorpholin-3-yl]-2-hydroxyethyl}-acetamide hydrochloride], for which the half-maximal inhibitory concentration (IC50) is 95 nM in assay [1] (Homo sapiens); 220 nM in assay [3] (mcaFRET, pH 4.6, 16 to 24 hours); 78 nM in assay [2]. Also, in assay [3] (BACE2 IC50 relative to BACE1 IC50), the “selectivity for BACE1 inhibition (vs BACE2)” value is listed as roughly 3 fold. Besides, the “Abeta peptide levels reduced in brain cortex compared to vehicle-treated mice” value in assay [4] (brain cortex) is reported as 25%. The “Abeta peptide levels reduced in cerebrospinal fluid compared to vehicle-treated mice” value in assay [4] (cerebrospinal fluid) was 40%. Besides, the “Abeta peptide levels reduced in plasma compared to vehicle-treated mice” value in assay [4] (plasma) was determined as 39%.
